Legend:
[1] = test system: dogs with naturally occurring osteoarthritis; assay: Dose ranging field study in osteoarthritic dogs, CBPI (Example 6); format: in vivo, dog; details: for median decrease from baseline PSS score: placebo 28; for median decrease from baseline PIS score: placebo 39.13; for Pain Interference Score (PIS), % change from Day 0 / Pain Severity Score (PSS), % change from Day 0: Formulation A34 tablets
Description: In a masked, multi-centered dose ranging field study, dogs with naturally occurring osteoarthritis were treated with grapiprant at 2 mg/kg once daily (SID), 5 mg/kg once daily, 4 mg/kg twice daily (BID), or placebo twice daily to assess the control of pain and inflammation. Dogs were randomly assigned to one of the four treatment groups and treated orally with Formulation A34 tablets of 20, 60, and 100 mg, or placebo tablets (matched to the 4 mg/kg group). (See above at Example 2, Table 4). The control of pain and inflammation was assessed by the owner using the validated Canine Brief Pain Inventory (CBPI) assessment tool, which consists of a pain severity score (PSS), a Pain Interference Score (PIS), and an Owner Impression of dog's quality of life. CBPI scoring, as well as a veterinarian assessment of osteoarthritis, were conducted at Study Day 0 (baseline) and Days 7, 14, 21, and 28.
In total 476 dogs were screened in the study with 108 screen failures, resulting in […] in the per protocol population.

cat serum proteins = assay: Binding to cat serum proteins by equilibrium dialysis (Example 11); details: equilibrium dialysis (RED device)
Description: Grapiprant concentrations of 200 and 1000 ng/mL in cat serum were subjected to equilibrium dialysis using a Rapid Equilibrium Dialysis (RED) device.

[2] = test system: thermal hyperalgesia induced by intraplantar injection of PGE2; details: oral administration; cited from earlier work
[3] = test system: complete Freund's adjuvant-induced chronic inflammatory pain response; details: cited from earlier work
Feline Onychectomy = assay: Feline onychectomy pain study FCL-12-002 (Example 9); format: in vivo, cat
Description: This controlled, non-GLP, laboratory study used three treatment groups: Group 1 was dosed with 20-mg grapiprant-containing Formulation […] tablets the night before (about 12 hours) and 30 minutes before surgery; Group 2 was the negative control dosed with empty gelatin capsules; and Group 3 was dosed with two 20-mg grapiprant-containing Formulation […] tablets given 30 minutes before surgery. Ten adult cats were in each group. The cats were acclimated for 7 days. Cats were divided into two sequences of 15 cats each to allow for surgeries over two days. The day of surgery was considered Day 0 for that sequence. One cat from each grapiprant-treated group was removed before surgical procedures were performed. On Day -1/0 for that sequence, all animals were administered with the appropriate test article before onychectomy. All animals received a dose of butorphanol before surgery. Following Day 2 procedures, all animals were transferred to an open feline colony. Study parameters of interest included statistical analysis of recovery, sedation, analgesia scores, and clinical pathology.

[4] = cats, 20-mg Formulation A34 tablets before onychectomy, vs placebo control

CCc1nc2c(C)nc(C)cc2n1-c1ccc(CCNC(=O)NS(=O)(=O)c2ccc(C)cc2)cc1 [grapiprant, N-{2-[4-(2-ethyl-4,6-dimethyl-1H-imidazo[4,5-c]pyridin-1-yl)phenyl]ethyl}-N′-[(4-methylphenyl)sulfonyl]urea]
control of pain and inflammation of osteoarthritis (PSS and PIS of the CBPI) ([1]; 2 mg/kg SID and 5 mg/kg SID doses): equally effective in controlling the pain and inflammation of osteoarthritis in dogs | median decrease from baseline PSS score ([1]; 2 mg/kg SID): 48 | median decrease from baseline PIS score ([1]; 2 mg/kg SID): 53.25 | median decrease from baseline PSS score ([1]; 4 mg/kg BID): 44.44 | median decrease from baseline PIS score ([1]; 4 mg/kg BID): 52.27 | median decrease from baseline PSS score ([1]; 5 mg/kg SID): 48.53 | median decrease from baseline PIS score ([1]; 5 mg/kg SID): 55.27 | Pain Interference Score (PIS), % change from Day 0 ([1]; 2 mg/kg SID, Day 7, median): −27.97% | Pain Severity Score (PSS), % change from Day 0 ([1]; 2 mg/kg SID, Day 7, median): −24.26% | Pain Interference Score (PIS), % change from Day 0 ([1]; 2 mg/kg SID, Day 14, median): −33.33% | Pain Severity Score (PSS), % change from Day 0 ([1]; 2 mg/kg SID, Day 14, median): −32.00% | Pain Interference Score (PIS), % change from Day 0 ([1]; 2 mg/kg SID, Day 21, median): −47.83% | Pain Severity Score (PSS), % change from Day 0 ([1]; 2 mg/kg SID, Day 21, median): −35.00% | Pain Interference Score (PIS), % change from Day 0 ([1]; 2 mg/kg SID, Day 28, median): −53.25% | Pain Severity Score (PSS), % change from Day 0 ([1]; 2 mg/kg SID, Day 28, median): −48.00% | Pain Interference Score (PIS), % change from Day 0 ([1]; 4 mg/kg BID, Day 7, median): −28.57% | Pain Severity Score (PSS), % change from Day 0 ([1]; 4 mg/kg BID, Day 7, median): −17.39% | Pain Interference Score (PIS), % change from Day 0 ([1]; 4 mg/kg BID, Day 14, median): −35.24% | Pain Severity Score (PSS), % change from Day 0 ([1]; 4 mg/kg BID, Day 14, median): −28.29% | Pain Interference Score (PIS), % change from Day 0 ([1]; 4 mg/kg BID, Day 21, median): −42.11% | Pain Severity Score (PSS), % change from Day 0 ([1]; 4 mg/kg BID, Day 21, median): −38.89% | Pain Interference Score (PIS), % change from Day 0 ([1]; 4 mg/kg BID, Day 28, median): −52.27% | Pain Severity Score (PSS), % change from Day 0 ([1]; 4 mg/kg BID, Day 28, median): −44.44% | Pain Interference Score (PIS), % change from Day 0 ([1]; 5 mg/kg SID, Day 7, median): −26.92% | Pain Severity Score (PSS), % change from Day 0 ([1]; 5 mg/kg SID, Day 7, median): −22.22% | Pain Interference Score (PIS), % change from Day 0 ([1]; 5 mg/kg SID, Day 14, median): −40.00% | Pain Severity Score (PSS), % change from Day 0 ([1]; 5 mg/kg SID, Day 14, median): −30.00% | Pain Interference Score (PIS), % change from Day 0 ([1]; 5 mg/kg SID, Day 21, median): −53.85% | Pain Severity Score (PSS), % change from Day 0 ([1]; 5 mg/kg SID, Day 21, median): −44.44% | Pain Interference Score (PIS), % change from Day 0 ([1]; 5 mg/kg SID, Day 28, median): −55.27% | Pain Severity Score (PSS), % change from Day 0 ([1]; 5 mg/kg SID, Day 28, median): −48.53% | preliminary estimated mean effective canine dose ([1]; extrapolated from human PK/PD, protein binding and receptor affinity, confirmed in the field study): 2 mg/kg SID | percent bound (cat serum proteins; 200 ng/mL): 95% | percent bound (cat serum proteins; 1000 ng/mL): 92% | ED50, reduction of thermal hyperalgesia [2]: 12.8 mg/kg | effect on chronic inflammatory pain response [3]: reverses complete Freund's adjuvant-induced chronic inflammatory pain response | comparison of dosing regimens (Feline Onychectomy; Group 1 (about 12 hours and 30 minutes before surgery) vs Group 3 (two tablets 30 minutes before surgery)): dosing the cats with grapiprant the night before surgery was more effective | pain interventions (Feline Onychectomy; both groups of grapiprant treated animals): fewer pain interventions than placebo control | analgesia scores (Feline Onychectomy; [4]): decreased analgesia scores (reduced pain) | sedation scores (Feline Onychectomy; [4]): without an apparent effect on sedation scores
